Test results taken from patent US9073916B2, “Prodrug forms of kinase inhibitors and their use in therapy” (AUCKLAND UNISERVICES LIMITED, priority 2009, dated 2015).
Where “and” joins values, the source holds several entries; their conditions need not be identical. Identical values can stand only once. Like-named read-outs stand apart in the source and are kept apart here.

Columns and labels:
H1975 cells = test: Cellular growth inhibition (sulforhodamine B); assay type: cell-based, Human; conditions: Table 9; for IC50: Homo sapiens, NCI-H1975
SKOV3 cells = test: Cellular growth inhibition (sulforhodamine B); assay type: cell-based, Human; conditions: Table 9; for IC50: Homo sapiens, SK-OV-3
SKOV3 xenografts = test: In vivo efficacy in SKOV3 xenografts; parameters: species or system mice
Method: (§1) Specific pathogen-free homozygous female NIH-III nude mice (Charles River Laboratories, Wilmington, Mass.) were inoculated subcutaneously with a single cell suspension of SKOV3 cells (1×10^7 cells/100 μL; right flank). When SKOV3 tumour xenografts were established (typically 50-65 days) mice were randomized to treatment groups. All compounds were prepared in lactate buffer (pH4). Mice were dosed by intraperitoneal injection (0.01-0.03 ml/g) using the stated schedules and dose levels. Tumour size and body weights were measured at regular intervals. Tumour volume was calculated as π (length×width^2)/6. […] Differences in RTV^4 were tested for statistical difference by Mann Whitney U test using SigmaStat v3.5.
as §1, with “Compounds 42 and 161” for “All compounds”

H1975 xenografts = test: In vivo efficacy in H1975 xenografts; parameters: species or system mice; conditions: H1975 xenografts, equitoxic dose 133 (42) and 42.2 (161) μmol/kg/dose, q3dx4, IP
Method: as §1, with “H1975” for “SKOV3”, “(5×10^6” for “(1×10^7”, “8-12” for “50-65”, “For growth delay experiments mice were randomized to treatment and tumor volume [π(length×width^2)/6]” for “Tumour size”, “weight” for “weights”, “daily following treatment.” for “at regular intervals. Tumour volume was calculated as π (length×width^2)/6.”

A431 cells = test: Cellular growth inhibition (sulforhodamine B)
[1] = Plasma and A431 tumour pharmacokinetics of compounds 42 and 161
erbB2 [2] = molecular target: T1, erbB2 (Homo sapiens, UniProt P04626); test: Inhibition of basal phospho-erbB2 in SKOV3 cells (Western blot); assay type: cell-based; parameters: endogenous in cells; host or cells: SKOV3 human ovarian carcinoma cells; conditions: SKOV3 cells; read-out: cellular erbB2 IC50
T1 sequence (P04626 23-1255): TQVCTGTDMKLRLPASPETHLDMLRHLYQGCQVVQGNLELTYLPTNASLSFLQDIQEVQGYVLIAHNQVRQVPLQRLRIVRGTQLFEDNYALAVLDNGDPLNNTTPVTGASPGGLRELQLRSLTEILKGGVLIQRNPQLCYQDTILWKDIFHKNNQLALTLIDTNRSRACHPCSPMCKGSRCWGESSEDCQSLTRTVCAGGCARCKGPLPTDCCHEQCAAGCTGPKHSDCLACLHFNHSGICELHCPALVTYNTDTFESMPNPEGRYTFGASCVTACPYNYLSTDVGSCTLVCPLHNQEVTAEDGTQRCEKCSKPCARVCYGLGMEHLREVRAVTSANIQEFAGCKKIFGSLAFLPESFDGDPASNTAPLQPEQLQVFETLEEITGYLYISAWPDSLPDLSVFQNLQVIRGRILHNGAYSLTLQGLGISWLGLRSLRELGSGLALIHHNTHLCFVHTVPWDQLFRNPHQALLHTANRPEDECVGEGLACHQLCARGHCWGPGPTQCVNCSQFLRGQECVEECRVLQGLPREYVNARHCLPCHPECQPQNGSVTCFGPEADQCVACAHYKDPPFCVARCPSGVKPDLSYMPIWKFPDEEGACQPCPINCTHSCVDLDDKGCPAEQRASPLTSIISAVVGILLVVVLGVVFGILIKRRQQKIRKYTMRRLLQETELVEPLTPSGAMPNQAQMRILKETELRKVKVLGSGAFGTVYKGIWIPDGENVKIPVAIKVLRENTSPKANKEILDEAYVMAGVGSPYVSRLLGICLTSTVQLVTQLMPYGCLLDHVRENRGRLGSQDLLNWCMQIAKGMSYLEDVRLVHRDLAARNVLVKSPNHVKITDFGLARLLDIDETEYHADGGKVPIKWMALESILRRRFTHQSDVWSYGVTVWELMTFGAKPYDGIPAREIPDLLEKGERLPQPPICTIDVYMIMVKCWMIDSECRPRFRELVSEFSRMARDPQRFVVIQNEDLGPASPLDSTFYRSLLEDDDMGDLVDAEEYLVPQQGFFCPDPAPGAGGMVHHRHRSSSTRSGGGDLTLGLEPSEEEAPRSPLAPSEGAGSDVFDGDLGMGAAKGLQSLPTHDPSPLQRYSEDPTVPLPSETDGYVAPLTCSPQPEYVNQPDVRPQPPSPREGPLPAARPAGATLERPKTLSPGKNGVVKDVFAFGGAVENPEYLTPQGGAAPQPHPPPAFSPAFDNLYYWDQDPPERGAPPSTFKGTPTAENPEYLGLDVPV
Description: Values are plotted using SigmaPlot 10.

erbB1 [3] = molecular target: T2, erbB1 (Homo sapiens, UniProt P00533); test: Cellular erbB1 inhibition: irreversibility wash-out assay in A431 cells
T2 sequence (P00533 25-1210): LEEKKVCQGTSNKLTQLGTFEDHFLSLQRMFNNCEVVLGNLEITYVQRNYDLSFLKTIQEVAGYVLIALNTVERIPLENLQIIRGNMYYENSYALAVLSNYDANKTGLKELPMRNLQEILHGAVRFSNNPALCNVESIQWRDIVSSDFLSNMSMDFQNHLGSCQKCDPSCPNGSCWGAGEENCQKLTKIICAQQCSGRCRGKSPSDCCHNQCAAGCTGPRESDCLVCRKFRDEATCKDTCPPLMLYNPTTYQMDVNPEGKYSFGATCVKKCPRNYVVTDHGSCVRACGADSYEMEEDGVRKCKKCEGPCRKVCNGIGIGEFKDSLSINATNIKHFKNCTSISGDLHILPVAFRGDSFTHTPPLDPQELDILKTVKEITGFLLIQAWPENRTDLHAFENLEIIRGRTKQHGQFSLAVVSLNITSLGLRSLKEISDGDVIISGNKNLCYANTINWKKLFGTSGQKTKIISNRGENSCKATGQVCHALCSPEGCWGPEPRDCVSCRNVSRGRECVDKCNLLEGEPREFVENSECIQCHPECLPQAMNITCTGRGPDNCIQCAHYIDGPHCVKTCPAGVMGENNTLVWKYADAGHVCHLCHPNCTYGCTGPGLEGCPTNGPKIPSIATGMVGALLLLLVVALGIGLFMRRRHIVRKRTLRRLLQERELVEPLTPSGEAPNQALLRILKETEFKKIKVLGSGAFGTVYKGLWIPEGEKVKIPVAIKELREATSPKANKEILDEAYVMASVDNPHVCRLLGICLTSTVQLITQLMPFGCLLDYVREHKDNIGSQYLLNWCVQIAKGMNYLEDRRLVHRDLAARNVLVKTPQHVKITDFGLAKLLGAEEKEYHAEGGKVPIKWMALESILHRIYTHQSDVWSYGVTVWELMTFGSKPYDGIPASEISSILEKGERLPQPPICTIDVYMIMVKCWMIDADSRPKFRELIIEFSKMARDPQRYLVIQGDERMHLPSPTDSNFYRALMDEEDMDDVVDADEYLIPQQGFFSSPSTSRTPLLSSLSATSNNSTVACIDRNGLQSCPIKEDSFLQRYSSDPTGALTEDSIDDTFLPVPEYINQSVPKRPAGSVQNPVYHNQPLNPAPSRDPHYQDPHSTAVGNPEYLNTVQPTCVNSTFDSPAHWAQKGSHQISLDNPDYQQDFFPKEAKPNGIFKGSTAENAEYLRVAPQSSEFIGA

erbB1 [4] = molecular target: T2, erbB1; test: Inhibition of erbB1 autophosphorylation in EGF-stimulated intact A431 cells (Western blot)
erbB2 [5] = molecular target: T1, erbB2; test: Isolated enzyme inhibition (Invitrogen Z′-LYTE kinase assay); assay type: biochemical; conditions: 10 μM ATP, duplicate
Method: (§2) The compounds of Table 1 were tested for their ability to inhibit erbB1, erbB1^T790M, erbB2 and erbB4 in an isolated enzyme assay. This assay utilises synthetic FRET-capable peptide substrates. Phosphorylation of these substrates protects them from cleavage by a development reagent, leaving their FRET-capabilities intact. […] As a further consideration, for compounds capable of irreversible inhibition of an enzyme, the IC50 reflects both reversible and irreversible binding to the enzyme.

erbB4 = erbB4 (Homo sapiens, UniProt Q15303); test: as above; assay type: biochemical; conditions: 10 μM ATP, duplicate
Sequence of erbB4 (Q15303 26-1308): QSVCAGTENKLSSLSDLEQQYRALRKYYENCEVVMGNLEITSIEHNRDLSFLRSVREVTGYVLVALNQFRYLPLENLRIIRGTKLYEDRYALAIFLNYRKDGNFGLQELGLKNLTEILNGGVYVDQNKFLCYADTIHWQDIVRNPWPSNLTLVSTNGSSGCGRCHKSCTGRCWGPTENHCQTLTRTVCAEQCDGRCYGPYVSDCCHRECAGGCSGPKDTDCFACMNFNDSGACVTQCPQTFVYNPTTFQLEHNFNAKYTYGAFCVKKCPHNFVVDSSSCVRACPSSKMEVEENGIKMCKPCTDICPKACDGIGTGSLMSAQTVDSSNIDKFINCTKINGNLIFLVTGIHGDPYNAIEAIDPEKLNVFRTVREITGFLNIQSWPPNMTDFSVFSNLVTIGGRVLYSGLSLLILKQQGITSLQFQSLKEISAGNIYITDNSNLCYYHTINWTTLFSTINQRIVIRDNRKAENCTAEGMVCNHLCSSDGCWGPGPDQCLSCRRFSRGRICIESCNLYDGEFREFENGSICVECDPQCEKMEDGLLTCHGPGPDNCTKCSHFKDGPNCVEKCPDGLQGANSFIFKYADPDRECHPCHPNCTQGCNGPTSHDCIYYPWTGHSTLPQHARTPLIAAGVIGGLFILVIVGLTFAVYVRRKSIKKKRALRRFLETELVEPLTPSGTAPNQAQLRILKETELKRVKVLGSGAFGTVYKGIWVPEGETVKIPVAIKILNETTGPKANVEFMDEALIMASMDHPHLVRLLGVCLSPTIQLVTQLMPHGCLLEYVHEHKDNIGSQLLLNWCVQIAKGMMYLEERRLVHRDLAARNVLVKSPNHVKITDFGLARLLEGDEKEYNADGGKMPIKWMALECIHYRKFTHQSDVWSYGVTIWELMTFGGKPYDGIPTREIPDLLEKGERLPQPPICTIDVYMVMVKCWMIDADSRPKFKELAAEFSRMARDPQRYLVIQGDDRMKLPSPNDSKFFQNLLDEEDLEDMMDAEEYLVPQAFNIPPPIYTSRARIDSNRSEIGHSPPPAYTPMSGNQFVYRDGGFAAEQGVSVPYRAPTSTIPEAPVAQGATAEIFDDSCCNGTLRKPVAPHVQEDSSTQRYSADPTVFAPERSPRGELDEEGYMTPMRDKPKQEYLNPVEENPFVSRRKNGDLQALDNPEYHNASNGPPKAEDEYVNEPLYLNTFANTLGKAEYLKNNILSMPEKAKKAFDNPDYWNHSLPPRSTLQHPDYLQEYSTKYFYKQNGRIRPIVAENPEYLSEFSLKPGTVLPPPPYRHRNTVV
Method: as §2

SKBR3 cells = test: Cellular growth inhibition (sulforhodamine B); assay type: cell-based, Human; conditions: Table 3
Method: Human A431, BT474, SKBR3, SKOV3, SW620, H1975 and HT29 carcinoma cells in log phase exponential growth in alpha minimal essential media (αMEM) containing 5% fetal bovine serum (FBS), were harvested by trypsinisation (1× trypsin/EDTA, Gibco Brl), counted, and seeded into 96 well plates (Nunc) at cell densities ranging from 800-1500 cells/well. Half of the cell samples were seeded into plates that were pre-equilibrated and held in an anoxic environment (90% N2, 5% H2, 5% CO2, 37° Q Anaerobic chamber, Coy Laboratory Products). […] At the end of this period the anoxic plates were recovered from the anaerobic camber and held under normoxia in a standard CO2 incubator (37° C.) for 20 hours. All plates were washed free of compound and cells were allowed to proliferate for a further 4 days in αMEM containing 5% FBS+antibiotics. Cells were fixed in trichloroacteic acid (30 min), washed and stained with sulforhodamine B (SRB, 60 min) prior to washing in acidified water. SRB was solubilised and absorption read at 450 nm to calculate cell densities. Inhibition of proliferation was calculated relative to untreated control wells.

SW620 cells = test: Cellular growth inhibition (sulforhodamine B); assay type: cell-based, Human; conditions: Table 3
A431 xenografts = test: In vivo efficacy in A431 xenografts; conditions: A431 xenografts; for tumour growth inhibition (TGI): q4dx3 at MTD, IP in lactate buffer
Method: as §1, with “CD-1” for “NIH-III”, “A431” for “SKOV3”, “(5×10^6” for “(1×10^7”, “[…];” for “μL;”, “6-10” for “50-65”

Erk1/2 = conditions: EGF-stimulated A431 cells
in vivo [6] = conditions: female, CD-1 nude, mouse, ip
in vivo [7] = conditions: mouse, plasma, ip, 42 umol/kg
[8] = Plasma and A431 tumour pharmacokinetics of compounds 11 and 20; conditions: NIHIII, mouse, 75 umol/kg
Method: A small piece (˜100 mg) of tissue was placed in biopulveriser well (previously cooled in liquid nitrogen) and reduced to fine powder with a 2-3 strong blows to the stainless steel pestle. The frozen powder was collected in pre-weighed microcentrifuge tube (kept on dry ice). […] The microcentrifuge tubes were spun at 13,000 rpm for 10 min to precipitate the cell debris and proteins. […] The analytes were eluted using a gradient of 0.01% formic acid in acetonitrile (80%)-water (20%) mixture and 0.01% formic acid in water (100%) on Zorbax SB 018, rapid resolution HT 3.0×50 mm, 1.8 micron (Agilent) HPLC column with a flow rate of 0.6 ml/min.

erbB1 [9] = molecular target: T2, erbB1; test: Isolated enzyme inhibition (Invitrogen Z′-LYTE kinase assay); assay type: biochemical; conditions: 10 μM ATP, duplicate
erbB1^T790M = erbB1^T790M (Homo sapiens, UniProt P00533, T790M); test: as above; assay type: biochemical; conditions: 10 μM ATP, duplicate
Sequence of erbB1^T790M (P00533 25-1210 T790M): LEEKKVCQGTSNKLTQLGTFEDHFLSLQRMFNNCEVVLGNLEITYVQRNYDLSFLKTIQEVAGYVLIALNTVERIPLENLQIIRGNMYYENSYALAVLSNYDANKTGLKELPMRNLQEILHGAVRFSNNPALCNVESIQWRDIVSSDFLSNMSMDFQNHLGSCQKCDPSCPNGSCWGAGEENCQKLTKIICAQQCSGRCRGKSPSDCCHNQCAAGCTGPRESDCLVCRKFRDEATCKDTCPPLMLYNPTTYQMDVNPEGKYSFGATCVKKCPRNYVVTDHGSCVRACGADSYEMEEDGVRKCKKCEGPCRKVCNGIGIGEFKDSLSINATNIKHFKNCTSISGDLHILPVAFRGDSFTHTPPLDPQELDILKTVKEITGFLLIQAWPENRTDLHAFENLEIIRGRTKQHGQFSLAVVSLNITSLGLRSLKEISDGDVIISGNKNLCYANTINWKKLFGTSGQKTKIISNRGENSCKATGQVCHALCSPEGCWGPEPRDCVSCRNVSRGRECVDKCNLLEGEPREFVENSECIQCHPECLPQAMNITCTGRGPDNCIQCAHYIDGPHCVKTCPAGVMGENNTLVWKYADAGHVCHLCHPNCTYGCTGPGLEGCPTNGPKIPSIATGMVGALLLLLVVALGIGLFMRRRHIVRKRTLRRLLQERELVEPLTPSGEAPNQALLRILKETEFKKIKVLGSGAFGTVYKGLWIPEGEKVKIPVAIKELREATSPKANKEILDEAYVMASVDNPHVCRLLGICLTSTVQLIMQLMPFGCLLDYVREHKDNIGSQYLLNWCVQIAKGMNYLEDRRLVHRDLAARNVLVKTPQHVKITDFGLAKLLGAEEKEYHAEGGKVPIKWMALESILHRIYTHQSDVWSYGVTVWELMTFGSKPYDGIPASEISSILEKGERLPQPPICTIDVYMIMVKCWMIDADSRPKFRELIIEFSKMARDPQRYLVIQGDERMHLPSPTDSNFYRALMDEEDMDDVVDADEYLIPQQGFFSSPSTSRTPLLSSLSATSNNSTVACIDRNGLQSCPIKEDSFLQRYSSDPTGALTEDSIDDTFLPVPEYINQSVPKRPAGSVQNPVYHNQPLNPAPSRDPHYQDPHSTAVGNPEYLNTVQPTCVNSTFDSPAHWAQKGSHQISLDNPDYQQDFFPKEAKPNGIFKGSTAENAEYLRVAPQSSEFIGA

[10] = Steady state radiolytic reduction by the CO2.− radical with HPLC-MS; assay type: physicochemical; conditions: for Effector release/Prodrug loss: 0.95 reducing equivalents; for Detection of MNA (methyl nitroaromatic) / release of effector following 1-electron reduction: HPLC-MS; for % Loss of prodrug / % Release of effector: HPLC-MS at 0.95 reducing equivalents; for release of effector following 1-electron reduction: steady state radiolysis
[11] = Pulse radiolysis (E(1) and fragmentation rate); assay type: physicochemical; conditions: for E (1)/V (one-electron reduction potential): determined against methylviologen
erbB1 [12] = molecular target: T2, erbB1; test: Cellular erbB1 inhibition under oxic and hypoxic conditions in A431 cells; assay type: cell-based; conditions: 1 μM, 4 hour exposure oxic or hypoxic, washed, EGF stimulated
Method: Human A431 epidermoid carcinoma cells were seeded at 400,000 cells/well in a 6 well plate in alpha minimal essential media (αMEM) containing 10% fetal bovine serum, 10 mM D-Glucose and 0.2 mM 2′-deoxycytidine. A431 cells were allowed to attach for 90 minutes under oxic or anoxic conditions, then exposed to test compounds at a concentration of 1 uM for a further 4 hours under oxic or anoxic conditions. The cells were then washed free of test compounds three times using serum free media and then returned to the incubator under oxic conditions overnight. The cells were then stimulated with 100 ng/mL EGF for 15 minutes before the medium was aspirated and the cells were washed with ice-cold PBS.

[13] = Homo sapiens, A-431, 24 h, read-out: Cellular Growth Inhibition IC50 A431 Oxic
[14] = Homo sapiens, SK-BR-3, 24 hour exposure entirely oxic, read-out: Cellular Growth Inhibition IC50 SKBR3 Oxic
[15] = Homo sapiens, SK-BR-3, first 4 hours anoxic, read-out: Cellular Growth Inhibition IC50 SKBR3 Anoxic
[16] = Homo sapiens, SW-620, 24 hour exposure entirely oxic, read-out: Cellular Growth Inhibition IC50 SW620 Oxic
[17] = Homo sapiens, SW-620, first 4 hours anoxic, read-out: Cellular Growth Inhibition IC50 SW620 Anoxic
[18] = Homo sapiens, A-431, read-out: Cellular Growth Inhibition IC50 A431 Anoxic

Structure (SMILES)	IC50 (A431 cells; [13])	IC50 (erbB1 [4])	IC50 (erbB2 [5])	IC50 (erbB4)	IC50 (SKBR3 cells; [14])	IC50 (SKBR3 cells; [15])	SKBR3 HCR (SKBR3 cells)	IC50 (SW620 cells; [16])	IC50 (SW620 cells; [17])	SW620 HCR (SW620 cells)	IC50 (A431 cells; [18])	IC50 (erbB1 [9])	IC50 (erbB1^T790M)	SKBR3 Deact. (SKBR3 cells)	SW620 Deact. (SW620 cells)	Effector release/Prodrug loss [10]	Detection of MNA (methyl nitroaromatic) [10]	% Loss of prodrug [10]	% Release of effector [10]	release of effector following 1-electron reduction [10]	also measured
CN(C)C/C=C/C(=O)Nc1cc2c(Nc3ccc(F)c(Br)c3)ncnc2cn1 [Compound 161, (2E)-N-[4-(3-bromo-4-fluoroanilino)pyrido[3,4-d]pyrimidin-6-yl]-4-(dimethylamino)-2-butenamide]	0.03 µM	0.005 µM	–	–	–	–	–	–	–	–	–	–	–	–	–	–	–	–	–	–	IC50 (H1975 cells; 24 hour exposure oxic, read-out: Cellular Growth Inhibition IC50 H1975 Oxic): 1.26 µM; IC50 (H1975 cells; first 4 hours anoxic, read-out: Cellular Growth Inhibition IC50 H1975 Anoxic): 1.4 µM; H1975 HCR (H1975 cells): 0.9 fold; IC50 (SKOV3 cells; 24 hour exposure oxic, read-out: Cellular Growth Inhibition IC50 SKOV3 Oxic): 0.84 µM; IC50 (SKOV3 cells; first 4 hours anoxic, read-out: Cellular Growth Inhibition IC50 SKOV3 Anoxic): 1.31 µM; SKOV3 HCR (SKOV3 cells): 0.8 fold; deaths (SKOV3 xenografts; q3dx9, 100 (42) and 31.6 (161) μmol/kg/dose): 1/7; tumour growth inhibition (TGI) (H1975 xenografts): 100%; IC50 (A431 cells; Homo sapiens, A-431, 4 h, read-out: Cellular Growth Inhibition IC50 A431 Anoxic): 0.028 µM; A431 HCR (A431 cells; Table 9): 1.6 fold; AUC ([1]; female, NIH-III, mouse, plasma, ip, 31.6 umol/kg): 8 µM·h; tumour AUC0-inf ([1]; inhibitor 161 dosed directly at 31.6 umol/kg ip, A431 tumour): 49 µmol·h/kg; IC50 (erbB2 [2]): 0.006 µM; erbB1 autophosphorylation, cells not washed free of drug (erbB1 [3]; 1 μM, 1 hour exposure, then EGF stimulation): completely inhibited
CN(C)C/C=C/C(=O)Nc1ccc2ncnc(Nc3cccc(Br)c3)c2c1 [Compound 11, (2E)-N-[4-(3-bromoanilino)-6-quinazolinyl]-4-(dimethylamino)-2-butenamide, reference compound]	0.04 µM	–	0.008 µM and 0.0077 µM	0.0027 µM	0.081 µM	0.141 µM	0.6 fold	3.43 µM	2.89 µM	1.2 fold	0.04 µM	–	–	–	–	–	–	–	–	–	deaths (A431 xenografts; q4dx6, 63% of single dose MTD): 2/12; deaths (SKOV3 xenografts; q3dx6, 133 (20) and 56 (11) umol/kg/dose): 1/7; inhibition of cellular Erk1/2 phosphorylation (Erk1/2): potent inhibitor; MTD (in vivo [6]): 100 µmol/kg; AUC(0-t) (in vivo [7]): 12 µM·h; half-life ([8]; A431 tumour, intraperitoneal): 9 h; AUC ([8]; plasma, ip): 18 µM·h; erbB1 autophosphorylation, cells not washed free of drug (erbB1 [3]): completely inhibited; inhibition of cellular HER1 phosphorylation (erbB1 [4]; EGF-stimulated A431 cells): potent inhibitor
Cn1c(C[N+](C)(C)C/C=C/C(=O)Nc2ccc3ncnc(Nc4cccc(Br)c4)c3c2)ccc1[N+](=O)[O-].[Br-] [Compound 19, (2E)-4-{[4-(3-bromoanilino)-6-quinazolinyl]amino}-N,N-dimethyl-N-[(1-methyl-5-nitro-1H-pyrrol-2-yl)methyl]-4-oxo-2-buten-1-ammonium bromide]	–	–	0.113 µM	0.061 µM	–	–	–	–	–	5.6 fold	–	0.0004 µM	0.451 µM	78 fold	46 fold	0.73	No	63%	46%	released effector (compound 11) detected	IC50 (SKBR3 cells; 24 hour exposure entirely oxic, read-out: Cellular Growth Inhibition IC50 SKBR3 Oxic): 6.33 µM; IC50 (SKBR3 cells; first 4 hours anoxic, read-out: Cellular Growth Inhibition IC50 SKBR3 Anoxic): 0.483 µM; IC50 (SW620 cells; 24 hour exposure entirely oxic, read-out: Cellular Growth Inhibition IC50 SW620 Oxic): 156 µM; IC50 (SW620 cells; first 4 hours anoxic, read-out: Cellular Growth Inhibition IC50 SW620 Anoxic): 28 µM; kfrag. (fragmentation rate constant upon 1-electron reduction) ([11]; benzyl-type radical formation): 90 ± 10 s⁻¹; E (1)/V (one-electron reduction potential) [11]: −0.493 V; tumour growth inhibition (TGI) (A431 xenografts): 120%; IC50 (A431 cells; read-out: Cellular Growth Inhibition IC50 A431 Anoxic, Table 3, first 4 hours of 24 hour exposure anoxic): 0.201 µM; IC50 (A431 cells; read-out: Cellular Growth Inhibition IC50 A431 Oxic, Table 3, 24 hour exposure entirely oxic): 2.64 µM; IC50 (erbB1 [4]; read-out: Cellular Enzyme Inhibition IC50 erbB1, Table 2, intact A431 cells, EGF-stimulated, average of two determinations): 0.962 µM
Cn1cc([N+](=O)[O-])nc1C[N+](C)(C)C/C=C/C(=O)Nc1ccc2ncnc(Nc3cccc(Br)c3)c2c1 [Compound 21, (2E)-4-{[4-(3-bromoanilino)-6-quinazolinyl]amino}-N,N-dimethyl-N-[(1-methyl-4-nitro-1H-imidazol-2-yl)methyl]-4-oxo-2-buten-1-ammonium bromide]	11 µM	1.19 µM	0.128 µM	0.076 µM	26.9 µM	30 µM	0.9 fold	423 µM	365 µM	1.2 fold	13.7 µM	0.00053 µM	0.531 µM	332 fold	123 fold	0.30	No	33%	10%	not observed	hypoxia-selective inhibition of p-erbB1 (erbB1 [12]): no apparent hypoxia-selective inhibition; E (1)/V (one-electron reduction potential) [11]: −0.468 V; tumour growth inhibition (TGI) (A431 xenografts): 10%; A431 Deact. (fold reduction in oxic growth inhibition relative to parent kinase inhibitor) (A431 cells; Table 3): 277 fold; A431 HCR (Hypoxic Cytotoxicity Ratio) (A431 cells; Table 3): 1.3 fold; Deact. (fold reduction in cellular erbB1 inhibition relative to the parent kinase inhibitor) (erbB1 [4]; Table 2, A431 cells): 130 fold
